Patent US20230093861A1, “RAPAMYCIN ANALOGS AS MTOR INHIBITORS” (Revolution Medicines, Inc., priority 2017, published 2023)
Where two headings read alike, the source gives them in different places.

How the values were obtained:
P-4E-BP1 (T37/46) = assay: Cell based AlphaLISA assay, inhibition of P-4E-BP1 (T37/46) (mTORC1 substrate phosphorylation) in MDA-MB-468 cells; conditions: Homo sapiens, AlphaLISA, two to four hours at 37° C., read-out: pIC50 for Inhibition of mTORC1 and mTORC2 Substrate Phosphorylation, P-4E-BP1-(T37/46) (converted)
Description: (§1) Cell Based AlphaLISA Assays for Determining IC50 for Inhibition of P-Akt (S473), P-4E-BP1 (T37/46), and P-P70S6K (T389) in MDA-MB-468 Cells
(§2) mTOR Kinase Cellular Assay
(§3) To measure functional activity of mTORC1 and mTORC2 in cells the phosphorylation of 4EBP1 (Thr37/46) and P70S6K (Thr389), and AKT1/2/3 (Ser473) was monitored using AlphaLisa SureFire Ultra Kits (Perkin Elmer). […] Incubations were terminated by removal of the assay buffer and addition of lysis buffer provided with the assay kit. Samples were processed according to the manufacturer's instructions. The Alpha signal from the respective phosphoproteins was measured in duplicate using a microplate reader (Envision, Perkin-Elmer or Spectramax M5, Molecular Devices). Inhibitor concentration response curves were analyzed using normalized IC50 regression curve fitting with control based normalization.

P-P70S6K (T389) = assay: Cell based AlphaLISA assay, inhibition of P-P70S6K (T389) (mTORC1 substrate phosphorylation) in MDA-MB-468 cells; conditions: Homo sapiens, 4 h, AlphaLISA, two to four hours at 37° C., read-out: pIC50 for Inhibition of mTORC1 and mTORC2 Substrate Phosphorylation, P-P70S6K-(T389) (converted)
Description: as §1, §2, §3

P-Akt (S473) = assay: Cell based AlphaLISA assay, inhibition of P-Akt (S473) (mTORC2 substrate phosphorylation) in MDA-MB-468 cells; conditions: Homo sapiens, AlphaLISA, two to four hours at 37° C., read-out: pIC50 for Inhibition of mTORC1 and mTORC2 Substrate Phosphorylation, p-AKT 1/2/3 -(S473) (converted)
Description: as §1, §2, §3

Row | Compound | IC50 (P-4E-BP1 (T37/46); MDA-MB-468, 4 h) [nM] | IC50 (P-P70S6K (T389)) [nM] | IC50 (P-Akt (S473); MDA-MB-468, 4 h) [nM] | IC50 (P-4E-BP1 (T37/46); 4 h) [nM] | IC50 (P-Akt (S473); 4 h) [nM]
1 | CO[C@H]1C[C@@H]2CC[C@@H](C)[C@@](O)(O2)C(=O)C(=O)N2CCCC[C@H]2C(=O)O[C@H]([C@H](C)C[C@@H]2CC[C@@H](OCCCCc3cn(CCOCCOCCOCCOCCOCCOCCOCCOCCC(=O)NCCCCn4nc(-c5cccc(C(=O)NC6=NCCS6)c5)c5c(N)ncnc54)nn3)[C@H](OC)C2)CC(=O)[C@H](C)/C=C(\C)[C@@H](O)[C@@H](OC)C(=O)[C@H](C)C[C@H](C)/C=C/C=C/C=C/1C [Example 40] | < 3.16 | < 1 | 31.6 to 1000 |  | 
2 | CO[C@H]1C[C@@H]2CC[C@@H](C)[C@@](O)(O2)C(=O)C(=O)N2CCCC[C@H]2C(=O)O[C@H]([C@H](C)C[C@@H]2CC[C@H](n3nncc3-c3cccc(-c4cn(CCOCCOCCOCCOCCOCCOCCOCCOCCC(=O)NCCCCn5nc(-c6ccc7oc(N)nc7c6)c6c(N)ncnc65)nn4)c3)[C@H](OC)C2)CC(=O)[C@H](C)/C=C(\C)[C@@H](O)[C@@H](OC)C(=O)[C@H](C)C[C@H](C)/C=C/C=C/C=C/1C [Example 62] | > 1000 | > 1000 | > 1000 |  | 
3 | CO[C@H]1C[C@@H]2CC[C@@H](C)[C@@](O)(O2)C(=O)C(=O)N2CCCC[C@H]2C(=O)O[C@H]([C@H](C)C[C@@H]2CC[C@H](n3cc(-c4cccc(C(=O)NCCOCCOCCOCCC(=O)NCCOCCOCCOCCC(=O)NCCCCn5nc(-c6ccc7oc(N)nc7c6)c6c(N)ncnc65)c4)nn3)[C@H](OC)C2)CC(=O)[C@H](C)/C=C(\C)[C@@H](O)[C@@H](OC)C(=O)[C@H](C)C[C@H](C)/C=C/C=C/C=C/1C [Example 137] | 3.16 to 31.6 | 1 to 10 | 31.6 to 1000 |  | 
4 | CO[C@H]1C[C@@H]2CC[C@@H](C)[C@@](O)(O2)C(=O)C(=O)N2CCCC[C@H]2C(=O)O[C@H]([C@H](C)C[C@@H]2CC[C@H](n3nncc3-c3cccc(-c4cnc(N5CCN(C(=O)CCc6cn(CCOCCOCCOCCC(=O)NCCCCn7nc(-c8ccc9oc(N)nc9c8)c8c(N)ncnc87)nn6)CC5)nc4)c3)[C@H](OC)C2)CC(=O)[C@H](C)/C=C(\C)[C@@H](O)[C@@H](OC)C(=O)[C@H](C)C[C@H](C)/C=C/C=C/C=C/1C [Example 48] | < 3.16 | < 1 | 3.16 to 31.6 |  | 
5 | COc1cccc2cc(-c3nc([C@H]4CC[C@H](C(=O)NCCOCCOCCNC(=O)CCOCCOCCOCCOCCn5cc(CCCCO[C@@H]6CC[C@@H](C[C@@H](C)[C@@H]7CC(=O)[C@H](C)/C=C(\C)[C@@H](O)[C@@H](OC)C(=O)[C@H](C)C[C@H](C)/C=C/C=C/C=C(\C)[C@@H](OC)C[C@@H]8CC[C@@H](C)[C@@](O)(O8)C(=O)C(=O)N8CCCC[C@H]8C(=O)O7)C[C@H]6OC)nn5)CC4)n4ncnc(N)c34)[nH]c12 [Example 187] | < 3.16 | < 1 | 3.16 to 31.6 |  | 
6 | CO[C@H]1C[C@@H]2CC[C@@H](C)[C@@](O)(O2)C(=O)C(=O)N2CCCC[C@H]2C(=O)O[C@H]([C@H](C)C[C@@H]2CC[C@H](n3cc(COC(=O)NCCOCCOCCOCCC(=O)NCCOCCOCCC(=O)NCCCCn4nc(-c5cc6cc(O)ccc6[nH]5)c5c(N)ncnc54)nn3)[C@H](OC)C2)CC(=O)[C@H](C)/C=C(\C)[C@@H](O)[C@@H](OC)C(=O)[C@H](C)C[C@H](C)/C=C/C=C/C=C/1C [Example 121] | 31.6 to 1000 | 1 to 10 | > 1000 |  | 
7 | CO[C@H]1C[C@@H]2CC[C@@H](C)[C@@](O)(O2)C(=O)C(=O)N2CCCCC2C(=O)O[C@H]([C@H](C)C[C@@H]2CC[C@H](n3cc(COCCOCCOCCOCCOCCOCCOCCOCCOCCOCCC(=O)NCCCCn4nc(-c5ccc6oc(N)nc6c5)c5c(N)ncnc54)nn3)[C@H](OC)C2)CC(=O)[C@H](C)/C=C(\C)[C@@H](O)[C@@H](OC)C(=O)[C@H](C)C[C@H](C)/C=C/C=C/C=C/1C (stereo in doubt) [Example 195] | 3.16 to 31.6 | 1 to 10 | 3.16 to 31.6 |  | 
8 | CO[C@H]1C[C@@H]2CC[C@@H](C)[C@@](O)(O2)C(=O)C(=O)N2CCCC[C@H]2C(=O)O[C@H]([C@H](C)C[C@@H]2CC[C@@H](OCCCCc3cn(CCOCCOCCOCCOCCOCCOCCOCCOCCC(=O)N4CCc5cc(Cn6nc(-c7ccc8oc(N)nc8c7)c7c(N)ncnc76)ccc5C4)nn3)[C@H](OC)C2)CC(=O)[C@H](C)/C=C(\C)[C@@H](O)[C@@H](OC)C(=O)[C@H](C)C[C@H](C)/C=C/C=C/C=C/1C [Example 88] |  | < 1 |  | < 3.16 | 3.16 to 31.6
9 | CO/N=C1/C[C@@H]([C@H](C)C[C@@H]2CC[C@H](n3cc(COC(=O)NCCOCCOCCOCCC(=O)NCCOCCOCCC(=O)NCCCCn4nc(-c5cc6cc(O)ccc6[nH]5)c5c(N)ncnc54)nn3)[C@H](OC)C2)OC(=O)[C@@H]2CCCCN2C(=O)C(=O)[C@]2(O)O[C@@H](CC[C@H]2C)C[C@H](OC)/C(C)=C/C=C/C=C/[C@@H](C)C[C@@H](C)C(=O)[C@H](OC)[C@H](O)/C(C)=C/[C@H]1C [Example 152] | > 1000 | 10 to 1000 | > 1000 |  | 
10 | CO[C@H]1C[C@@H]2CC[C@@H](C)[C@@](O)(O2)C(=O)C(=O)N2CCCC[C@H]2C(=O)O[C@H]([C@H](C)C[C@@H]2CC[C@@H](O)[C@H](OC)C2)C[C@@H](O)[C@H](C)/C=C(\C)[C@@H](O)[C@@H](OC)C(=NOCc2cn(CCOCCOCCOCCOCCOCCOCCOCCOCCC(=O)NCCCCn3nc(-c4cnc5[nH]ccc5c4)c4c(N)ncnc43)nn2)[C@H](C)C[C@H](C)/C=C/C=C/C=C/1C [Example 79] | 3.16 to 31.6 | < 1 | 31.6 to 1000 |  | 
11 | CO[C@H]1C[C@@H]2CC[C@@H](C)[C@@](O)(O2)C(=O)C(=O)N2CCCC[C@H]2C(=O)O[C@H]([C@H](C)C[C@@H]2CC[C@@H](OCCCCc3cn(CCOCCOCCOCCOCCOCCOCCC(=O)N4CCC(Cn5nc(-c6ccc7oc(N)nc7c6)c6c(N)ncnc65)C4)nn3)[C@H](OC)C2)CC(=O)[C@H](C)/C=C(\C)[C@@H](O)[C@@H](OC)C(=O)[C@H](C)C[C@H](C)/C=C/C=C/C=C/1C (stereo partly drawn) [Example 8] | < 3.16 | < 1 | 3.16 to 31.6 |  | 
12 | CO[C@H]1C[C@@H]2CC[C@@H](C)[C@@](O)(O2)C(=O)C(=O)N2CCCC[C@H]2C(=O)O[C@H]([C@H](C)C[C@@H]2CC[C@H](n3cc(COC(=O)NCCOCCOCCOCCC(=O)NCCOCCOCCOCCC(=O)NCCCCn4nc(-c5cc6cc(O)ccc6[nH]5)c5c(N)ncnc54)nn3)[C@H](OC)C2)C[C@@H](OC)[C@H](C)/C=C(\C)[C@@H](O)[C@@H](OC)C(=O)[C@H](C)C[C@H](C)/C=C/C=C/C=C/1C [Example 146] | > 1000 | 1 to 10 | > 1000 |  | 
13 | CO[C@H]1C[C@@H]2CC[C@@H](C)[C@@](O)(O2)C(=O)C(=O)N2CCCC[C@H]2C(=O)O[C@H]([C@H](C)C[C@@H]2CC[C@@H](OCCCCc3cn(CCOCCOCCOCCOCCNC(=O)CCC(=O)NCCCCn4nc(-c5ccc6oc(N)nc6c5)c5c(N)ncnc54)nn3)[C@H](OC)C2)CC(=O)[C@H](C)/C=C(\C)[C@@H](O)[C@@H](OC)C(=O)[C@H](C)C[C@H](C)/C=C/C=C/C=C/1C [Example 99] | 3.16 to 31.6 | < 1 | 3.16 to 31.6 |  | 
14 | CO[C@H]1C[C@@H]2CC[C@@H](C)[C@@](O)(O2)C(=O)C(=O)N2CCCC[C@H]2C(=O)O[C@H]([C@H](C)C[C@@H]2CC[C@H](n3cc(COC(=O)NCCOCCOCCOCCC(=O)NCc4cnc(N5CCN(c6ncc(C(=O)NCCCCn7nc(-c8cc9cc(O)ccc9[nH]8)c8c(N)ncnc87)cn6)CC5)nc4)nn3)[C@H](OC)C2)CC(=O)[C@H](C)/C=C(\C)[C@@H](O)[C@@H](OC)C(=O)[C@H](C)C[C@H](C)/C=C/C=C/C=C/1C [Example 184] | < 3.16 | < 1 | 3.16 to 31.6 |  | 
15 | CO[C@H]1C[C@@H]2CC[C@@H](C)[C@@](O)(O2)C(=O)C(=O)N2CCCC[C@H]2C(=O)O[C@H]([C@H](C)C[C@@H]2CC[C@H](n3cc(-c4cccc(C(=O)NCCOCCOCCOCCOCCC(=O)NCCOCCOCCOCCOCCC(=O)NCCCCn5nc(-c6cc7cc(O)ccc7[nH]6)c6c(N)ncnc65)c4)nn3)[C@H](OC)C2)CC(=O)[C@H](C)/C=C(\C)[C@@H](O)[C@@H](OC)C(=O)[C@H](C)C[C@H](C)/C=C/C=C/C=C/1C [Example 142] | 3.16 to 31.6 | 1 to 10 | 31.6 to 1000 |  | 
16 | CO[C@H]1C[C@@H]2CC[C@@H](C)[C@@](O)(O2)C(=O)C(=O)N2CCCC[C@H]2C(=O)O[C@H]([C@H](C)C[C@@H]2CC[C@H](n3nncc3-c3cccc(-c4cnc(N5CCN(Cc6cn(CCOCCOCCOCCOCCC(=O)NCCCCn7nc(-c8ccc9oc(N)nc9c8)c8c(N)ncnc87)nn6)C(CO)C5)nc4)c3)[C@H](OC)C2)CC(=O)[C@H](C)/C=C(\C)[C@@H](O)[C@@H](OC)C(=O)[C@H](C)C[C@H](C)/C=C/C=C/C=C/1C (stereo partly drawn) [Example 33] | 3.16 to 31.6 | 1 to 10 | 3.16 to 31.6 |  | 
